Laboratory results: ChEMBL document CHEMBL1156397, “A benzylisoquinoline alkaloid from Doryphora sassafras” (J Nat Prod, 2001)

Target: Kappa-type opioid receptor (Cavia porcellus) (UniProt P41144)
Experiment: Displacement of [3H]U69593 from kappa opioid receptor in guinea pig brain membrane at 100 uM by Betaplate liquid scintillation counter
Type: cell membranes

Chain of Kappa-type opioid receptor (Cavia porcellus) (P41144 whole entry): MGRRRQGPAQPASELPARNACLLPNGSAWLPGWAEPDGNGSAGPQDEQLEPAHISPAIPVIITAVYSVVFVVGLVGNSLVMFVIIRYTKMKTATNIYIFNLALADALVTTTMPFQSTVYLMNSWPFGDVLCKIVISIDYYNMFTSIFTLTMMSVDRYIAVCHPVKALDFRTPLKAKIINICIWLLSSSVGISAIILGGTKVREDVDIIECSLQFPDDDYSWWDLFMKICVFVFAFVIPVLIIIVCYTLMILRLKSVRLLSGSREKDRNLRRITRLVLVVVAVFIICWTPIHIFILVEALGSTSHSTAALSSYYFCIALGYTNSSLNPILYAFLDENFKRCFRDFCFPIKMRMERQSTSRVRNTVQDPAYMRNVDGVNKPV

COc1ccc(Cc2c3cc4c(cc3cc[n+]2C)OCO4)cc1
Activity: 50%
